From BindingDB's records for doi:10.1016/j.bmcl.2017.09.009 (St. John'S University, 2017) come the findings set out here.

Several values for one entry are separate records, joined by “and”; a condition that tells them apart may be missing. Identical values can stand only once.

A short description of series [1]: Inhibition of ABCG2 in human H460/MX20 cells assessed as potentiation of mitoxantrone induced antiproliferative activity by measuring mitoxantrone IC50 at 1 uM preincubated for 2 hrs followed by mitoxantrone addition measured after 72 hrs by MTT assay (Rvb = 6.161 +/- 0.172 microM). A general note: Tetrazolium assays rely on reduction of a dye to a coloured formazan, in cell work by metabolically active cells.

Series [2] can be described thus: Inhibition of ABCG2 in human H460/MX20 cells assessed as potentiation of mitoxantrone induced antiproliferative activity by measuring mitoxantrone IC50 at 10 uM preincubated for 2 hrs followed by mitoxantrone addition measured after 72 hrs by MTT assay (Rvb = 6.161 +/- 0.172 microM).
Series [3] can be described thus: Inhibition of ABCG2 in human H460/MX20 cells assessed as potentiation of mitoxantrone induced antiproliferative activity by measuring mitoxantrone IC50 at 3 uM preincubated for 2 hrs followed by mitoxantrone addition measured after 72 hrs by MTT assay (Rvb = 6.161 +/- 0.172 microM).
Assay in series [4]: as above
The source holds these as a separate data set.

Series [5] has as its target T1, Broad substrate specificity ATP-binding cassette transporter ABCG2 (Homo sapiens, UniProt Q9UNQ0).
T1 sequence (Q9UNQ0 whole entry): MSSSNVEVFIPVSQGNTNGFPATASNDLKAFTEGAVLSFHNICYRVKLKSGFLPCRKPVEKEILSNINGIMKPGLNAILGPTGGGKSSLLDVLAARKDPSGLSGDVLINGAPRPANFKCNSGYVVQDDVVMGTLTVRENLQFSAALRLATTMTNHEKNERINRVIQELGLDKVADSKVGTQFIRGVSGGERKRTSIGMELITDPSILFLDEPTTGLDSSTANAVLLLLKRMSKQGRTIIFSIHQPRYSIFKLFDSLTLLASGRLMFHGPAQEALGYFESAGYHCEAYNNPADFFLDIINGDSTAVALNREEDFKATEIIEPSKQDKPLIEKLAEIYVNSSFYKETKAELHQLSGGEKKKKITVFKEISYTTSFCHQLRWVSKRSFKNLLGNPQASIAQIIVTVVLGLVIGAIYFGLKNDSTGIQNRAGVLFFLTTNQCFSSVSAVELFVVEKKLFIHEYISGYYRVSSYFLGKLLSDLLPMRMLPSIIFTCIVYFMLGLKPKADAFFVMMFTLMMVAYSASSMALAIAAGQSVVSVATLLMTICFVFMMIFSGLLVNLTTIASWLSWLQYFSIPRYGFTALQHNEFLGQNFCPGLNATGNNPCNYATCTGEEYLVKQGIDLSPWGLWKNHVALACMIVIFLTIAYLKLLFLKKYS
Briefly: (§1) Inhibition of ABCG2 in human H460/MX20 cells assessed as potentiation of mitoxantrone induced antiproliferative activity by measuring mitoxantrone IC50 at 10 uM preincubated for 2 hrs followed by mitoxantrone addition measured after 72 hrs by MTT assay (Rvb = 6.161 +/- 0.172 microM).

Series [6] addresses T1, Broad substrate specificity ATP-binding cassette transporter ABCG2. The experiment in a line: Inhibition of ABCG2 in human H460/MX20 cells assessed as potentiation of mitoxantrone induced antiproliferative activity by measuring mitoxantrone IC50 at 3 uM preincubated for 2 hrs followed by mitoxantrone addition measured after 72 hrs by MTT assay (Rvb = 6.161 +/- 0.172 microM).

For series [7] the target is unchanged. The experiment in a line: ChEBML_1696291. How it is done:
as §1

Turning to `COc1cccc(-n2nnc(-c3ccccc3NC(=O)c3ccc([N+](=O)[O-])cc3)n2)c1`, in series [1], the IC50 was 585 nM.

Consider `COc1ccc(-n2nnc(-c3ccccc3NC(=O)c3ccc([N+](=O)[O-])cc3)n2)cc1`, for which the IC50 in series [2] turned out to be 378 nM; in series [3], 535 nM; in series [1], 587 nM.

In the case of `COc1ccc(C(=O)Nc2ccccc2-c2nnn(-c3ccc(OC)cc3)n2)cc1`, the half-maximal inhibitory concentration (IC50) is 492 nM in series [2], 746 nM in series [1] and 505 nM in series [4].

For `CCCc1ccc(NC(=O)c2ccccc2NC(=O)c2ccc(OC)cc2)cc1`, the IC50 in series [2] came out at 1660 nM.

For `CCCc1ccc(NC(=O)c2ccccc2NC(=O)c2ccc([N+](=O)[O-])cc2)cc1`, the IC50 in series [5] was 594 nM; in series [1], 833 nM; in series [4], 783 nM.

Regarding `CCCc1ccc(NC(=O)c2ccccc2NC(=O)Nc2ccc(OC)cc2)cc1`, the values for the IC50 in series [5] and in series [1] were 985 nM and 3370 nM, respectively.

Consider `CCCc1ccc(NC(=O)c2ccccc2NC(=O)Nc2ccc(Br)cc2)cc1`, for which the IC50 in series [6] worked out at 2120 nM; in series [1], 2660 nM.

`CCCc1ccc(NC(=O)c2ccccc2NC(=O)Nc2ccccc2[N+](=O)[O-])cc1`: the values for the IC50 in series [5] and in series [4] were 1120 nM and 2560 nM, respectively.

As to `CCCc1ccc(NC(=O)c2ccccc2NC(=O)Nc2ccc([N+](=O)[O-])cc2)cc1`, the values for the IC50 in series [1] and in series [4] were 622 nM and 482 nM, respectively.

Take `COc1cccc(-n2nnc(-c3ccccc3NC(=O)Nc3ccc(NC(=O)CBr)cc3)n2)c1`: the 50% inhibitory concentration (IC50) in series [5] was found to be 472 nM; in series [1], 798 nM.

With `COc1cccc(-n2nnc(-c3ccccc3NC(=O)Nc3ccc(N=C=S)cc3)n2)c1`, the IC50 in series [4] stood at 667 nM.

Regarding `COc1cccc(-n2nnc(-c3ccccc3NC(=O)Nc3ccc(NC(C)=O)cc3)n2)c1`, the IC50 in series [2] is 325 nM.

Turning to `COc1cccc(-n2nnc(-c3ccccc3NC(=O)Nc3ccccc3[N+](=O)[O-])n2)c1`, the half-maximal inhibitory concentration (IC50) in series [2] is 882 nM; in series [4], 978 nM.

For the compound `COc1cccc(-n2nnc(-c3ccccc3NC(=O)Nc3ccc([N+](=O)[O-])cc3)n2)c1`, in series [2], the IC50 amounted to 403 nM.

Consider `COc1cccc(-n2nnc(-c3ccccc3NC(=O)c3ccc(NC(=O)CBr)cc3)n2)c1`, for which the results for the half-inhibitory concentration (IC50) in series [6] and in series [2] were 446 nM and 283 nM, respectively.

As to `COc1cccc(-n2nnc(-c3ccccc3NC(=O)c3ccc(N=[N+]=[N-])cc3)n2)c1`, the IC50 in series [1] is 1620 nM; in series [4] it was 1500 nM.

For the compound `COc1cccc(-n2nnc(-c3ccccc3NC(=O)c3ccc(NC(C)=O)cc3)n2)c1`, the IC50 in series [2] was found to be 1200 nM; in series [3], 1320 nM; in series [1], 1360 nM.

Turning to `COc1cccc(-n2nnc(-c3ccccc3NC(=O)c3ccc(N)cc3)n2)c1`, the IC50 in series [6] turned out to be 491 nM; in series [2], 299 nM.

On to `COc1cccc(-n2nnc(-c3ccccc3NC(=O)c3ccccc3[N+](=O)[O-])n2)c1`, for which the half-maximal inhibitory concentration (IC50) in series [5] amounted to 1100 nM.

Turning to `COc1cccc(-n2nnc(-c3ccccc3NC(=O)c3cccc([N+](=O)[O-])c3)n2)c1`, the half-maximal inhibitory concentration (IC50) in series [1] is 1800 nM.

Regarding `O=C(Nc1ccc([N+](=O)[O-])cc1)Nc1ccccc1C(=O)Nc1ccc(C(F)(F)F)cc1`, the half-maximal inhibitory concentration (IC50) in series [7] came out at 711 nM; in series [2], 452 nM.

`CCCc1ccc(C(=O)Nc2ccccc2-c2nnn(-c3cccc(OC)c3)n2)cc1`: the IC50 in series [2] is 131 nM.

As for `COc1cccc(-n2nnc(-c3ccccc3NC(=O)c3ccc(N=C=S)cc3)n2)c1`, in series [4], the IC50 is 1050 nM and 952 nM.

With `COc1cccc(-n2nnc(-c3ccccc3NC(=O)Nc3ccc(N)cc3)n2)c1`, the IC50 in series [2] amounted to 379 nM; in series [1] it was 838 nM.

As for `COc1ccc(-n2nnc(-c3ccccc3NC(=O)Nc3ccc([N+](=O)[O-])cc3)n2)cc1`, the IC50 in series [5] stood at 331 nM; in series [4] it was 541 nM.

Regarding `CCCc1ccc(NC(=O)c2ccccc2NC(=O)Nc2cccc([N+](=O)[O-])c2)cc1`, the half-maximal inhibitory concentration (IC50) in series [1] turned out to be 651 nM.

As for `COc1cccc(-n2nnc(-c3ccccc3NC(=O)Nc3ccc(N=[N+]=[N-])cc3)n2)c1`, in series [1], the IC50 was 913 nM.

In the case of `COc1ccc2c3c([nH]c2c1)[C@H](C=C(C)C)N1C(=O)[C@@H]2CCCN2C(=O)[C@@H]1C3` [Fumitremorgin C], the concentration for half-maximal inhibition (IC50) stood at 612 nM in series [1] and 451 nM in series [4].

What is called IC50 is the midpoint of a concentration-inhibition curve.
